Experimental data as given in patent US20210115104A1, “AMYLIN ANALOGUES” (Zealand Pharma A/S, priority 2015, published 2021).
*1 amine or outer side, *2 acyl side, *3 side chain or, on linkers, in order; H or OH if unused. Where a SMILES comes first, the peptide text is derived from it. Bridges are numbered along the chain shown (N, C = ends). [ ]: non-standard residue; d: D form. The star is where a group is joined. C20 diacid = O=C(O)CCCCCCCCCCCCCCCCCCC(=O)*; γGlu = O=C(O)[C@H](CCC(=O)[*:2])N[*:1]; Hyp = O=C(O)[C@@H]1C[C@@H](O)CN1; NMeI = CC[C@H](C)[C@H](NC)C(=O)O; Sar = CNCC(=O)O

Legend:
[1] = Assessment of chemical stability (RP-HPLC normalized purity); type: physicochemical; conditions: 7 days, 40° C., Table 1; for Normalized purity after 7 days, 40° C., pH 4: pH 4, 0.2 mg/ml; for Normalized purity after 7 days, 40° C., pH 6: pH 6, 0.2 mg/ml; for Normalized purity after 7 days, 40° C., pH 7.5: pH 7.5, 0.2 mg/ml; for Normalized purity after 7 days, 40° C., pH 9: pH 9, 0.2 mg/ml
In short: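 Purity after 7 days at 40° C is expressed relative to T=0 (set to 100) for each pH. Samples at 0.2 mg/ml, pH 4, 6, 7.5 or 9, analyzed by RP-HPLC with UV 220 nm on C8 (ammonium formate) or C18 (TFA) gradients.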

[2] = Assessment of physical stability (Thioflavin T fibrillation); type: physicochemical; set-up: key: FND = fibrillation not detected; FD = fibrillation detected; conditions: 1 mg/ml, 40° C., ThT; for Fibrillation pH 4.0 (Ac): 50 mM acetate buffer pH 4.0, 96 hours; for Fibrillation pH 7.0 (His): 50 mM histidine buffer pH 7.0, 96 hours; for Fibrillation pH 7.0 (Phos.): 50 mM phosphate buffer pH 7.0, 96 hours
In short: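 Fibrillation lag-time, in hours, taken where regressions of the initial stable phase and the growth phase intersect. ThT (40 μM) fluorescence monitored at 40 °C for 96 h, 10-min reads each preceded by 300 s mixing. Peptide at 1 mg/ml in 50 mM buffers: phosphate or histidine pH 7.0, acetate pH 4.0.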

[3] = biological target: T1, human calcitonin receptor (hCTR2) (Homo sapiens, UniProt P30988); assay: hCTR2 cAMP assay (AlphaScreen) in COS7 cells; type: cell-based; conditions: cAMP induction, COS7 cells expressing hCTR2; Table 1; read-out: hCTR2 EC50
T1 construct: expressed in transfected cells
T1 sequence (P30988 25-474): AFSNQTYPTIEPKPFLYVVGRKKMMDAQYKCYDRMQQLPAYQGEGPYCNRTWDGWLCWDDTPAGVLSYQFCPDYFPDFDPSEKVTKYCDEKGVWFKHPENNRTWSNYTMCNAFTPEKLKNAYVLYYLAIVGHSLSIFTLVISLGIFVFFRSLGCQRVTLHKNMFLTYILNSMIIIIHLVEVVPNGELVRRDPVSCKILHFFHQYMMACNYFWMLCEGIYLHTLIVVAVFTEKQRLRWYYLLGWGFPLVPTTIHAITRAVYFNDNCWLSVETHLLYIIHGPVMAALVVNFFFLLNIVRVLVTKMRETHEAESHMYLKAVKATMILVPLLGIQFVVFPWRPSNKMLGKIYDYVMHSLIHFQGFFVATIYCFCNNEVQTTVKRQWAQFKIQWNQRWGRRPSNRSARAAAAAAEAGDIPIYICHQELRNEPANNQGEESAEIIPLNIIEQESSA
In short: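 cAMP induction, read by AlphaScreen after lysis, gives EC50 values via 4PL curve fitting. Peptides were applied at rising concentrations for 15 min at 37 °C, with IBMX and 0.1% casein in HEPES-buffered Tyrode pH 7.4, to COS7 cells (no endogenous RAMPs) stably expressing human CTR2.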

SMILES | Normalized purity after 7 days, 40° C., pH 4 [1] | Normalized purity after 7 days, 40° C., pH 6 [1] | Normalized purity after 7 days, 40° C., pH 7.5 [1] | Normalized purity after 7 days, 40° C., pH 9 [1] | Fibrillation pH 4.0 (Ac) [2] | Fibrillation pH 7.0 (His) [2] | Fibrillation pH 7.0 (Phos.) [2] | EC50 [3]
CC[C@H](C)[C@@H](C(=O)N[C@@H](CC(C)C)C(=O)N[C@@H](CO)C(=O)N[C@@H](CO)C(=O)N[C@H](C(=O)N[C@@H](CCC(=O)O)C(=O)N[C@H](C(=O)NCC(=O)N[C@@H](CO)C(=O)N[C@@H](CC(N)=O)C(=O)N[C@H](C(=O)N1C[C@H](O)C[C@H]1C(N)=O)[C@@H](C)O)C(C)C)[C@@H](C)O)N(C)C(=O)[C@H](C)NC(=O)CN(C)C(=O)[C@H](Cc1ccccc1)NC(=O)[C@H](CCCNC(=N)N)NC(=O)[C@H](CCC(N)=O)NC(=O)[C@H](CC(C)C)NC(=O)[C@H](Cc1ccccc1)NC(=O)[C@H](Cc1c[nH]cn1)NC(=O)[C@H](C)NC(=O)[C@H](CC(C)C)NC(=O)[C@H](CCCNC(=N)N)NC(=O)[C@H](CCC(=O)O)NC(=O)[C@@H](NC(=O)[C@H](C)NC(=O)[C@@H]1CSSC[C@H](NC(=O)[C@H](CCCNC(=N)N)NC(=O)CC[C@H](NC(=O)CCCCCCCCCCCCCCCCCCC(=O)O)C(=O)O)C(=O)NCC(=O)N[C@@H]([C@@H](C)O)C(=O)N[C@@H](C)C(=O)N[C@@H]([C@@H](C)O)C(=O)N1)[C@@H](C)O [Compound 77, [19CD]-isoGlu-R-C( )-GTAT-C( )-ATERLAHFLQRF-Gly(Me)-A-Ile(Me)-LSSTEVGSNT-Hyp-NH2] ({C20 diacid-γGlu}-RCGTATCATERLAHFLQRF[Sar]A[NMeI]LSSTEVGSNT[Hyp]-NH2; disulfide 2-7) | A (A = >90%) | A (A = >90%) | B (B = 70-90%) | B (B = 70-90%) | FND | FND | FND | 0.16 nM
CC[C@H](C)[C@@H](C(=O)N[C@@H](CC(C)C)C(=O)N[C@@H](CO)C(=O)N[C@@H](CO)C(=O)N[C@H](C(=O)N[C@@H](CCC(=O)O)C(=O)N[C@H](C(=O)NCC(=O)N[C@@H](CO)C(=O)N[C@@H](CC(N)=O)C(=O)N[C@H](C(=O)N1C[C@H](O)C[C@H]1C(N)=O)[C@@H](C)O)C(C)C)[C@@H](C)O)N(C)C(=O)[C@H](C)NC(=O)CN(C)C(=O)[C@H](Cc1ccccc1)NC(=O)[C@H](CO)NC(=O)[C@H](CO)NC(=O)[C@H](CCCNC(=N)N)NC(=O)[C@H](CCC(N)=O)NC(=O)[C@H](CC(C)C)NC(=O)[C@H](Cc1ccccc1)NC(=O)[C@H](Cc1c[nH]cn1)NC(=O)[C@H](C)NC(=O)[C@H](CC(C)C)NC(=O)[C@H](CCCNC(=N)N)NC(=O)[C@H](CC(=O)O)NC(=O)[C@@H](NC(=O)[C@H](C)NC(=O)[C@@H]1CSSC[C@H](NC(=O)[C@H](CCCNC(=N)N)NC(=O)CC[C@H](NC(=O)CCCCCCCCCCCCCCCCCCC(=O)O)C(=O)O)C(=O)N[C@@H](CCC(N)=O)C(=O)N[C@@H]([C@@H](C)O)C(=O)N[C@@H](C)C(=O)N[C@@H]([C@@H](C)O)C(=O)N1)[C@@H](C)O [Compound 88, [19CD]-isoGlu-R-C( )-QTAT-C( )-ATDRLAHFLQRSSF-Gly(Me)-A-Ile(Me)-LSSTEVGSNT-Hyp-NH2] ({C20 diacid-γGlu}-RCQTATCATDRLAHFLQRSSF[Sar]A[NMeI]LSSTEVGSNT[Hyp]-NH2; disulfide 2-7) | A (A = >90%) | A (A = >90%) | A (A = >90%) | A (A = >90%) | FND | FND | FND | 0.06 nM
CC[C@H](C)[C@@H](C(=O)N[C@@H](CC(C)C)C(=O)N[C@@H](CO)C(=O)N[C@@H](CO)C(=O)N[C@H](C(=O)N[C@@H](CCC(=O)O)C(=O)N[C@H](C(=O)NCC(=O)N[C@@H](CO)C(=O)NCC(=O)N[C@H](C(=O)N1C[C@H](O)C[C@H]1C(N)=O)[C@@H](C)O)C(C)C)[C@@H](C)O)N(C)C(=O)[C@H](C)NC(=O)CN(C)C(=O)[C@H](Cc1ccccc1)NC(=O)[C@H](CO)NC(=O)[C@H](CO)NC(=O)[C@H](CCCNC(=N)N)NC(=O)[C@H](CCC(N)=O)NC(=O)[C@H](CC(C)C)NC(=O)[C@H](Cc1ccccc1)NC(=O)[C@H](Cc1c[nH]cn1)NC(=O)[C@H](C)NC(=O)[C@H](CC(C)C)NC(=O)[C@H](CCCNC(=N)N)NC(=O)[C@H](CCC(=O)O)NC(=O)[C@@H](NC(=O)[C@H](C)NC(=O)[C@@H]1CSSC[C@H](NC(=O)[C@H](CCCNC(=N)N)NC(=O)CC[C@H](NC(=O)CCCCCCCCCCCCCCCCCCC(=O)O)C(=O)O)C(=O)N[C@@H](CCC(N)=O)C(=O)N[C@@H]([C@@H](C)O)C(=O)N[C@@H](C)C(=O)N[C@@H]([C@@H](C)O)C(=O)N1)[C@@H](C)O [Compound 90, [19CD]-isoGlu-R-C( )-QTAT-C( )-ATERLAHFLQRSSF-Gly(Me)-A-Ile(Me)-LSSTEVGSGT-Hyp-NH2] ({C20 diacid-γGlu}-RCQTATCATERLAHFLQRSSF[Sar]A[NMeI]LSSTEVGSGT[Hyp]-NH2; disulfide 2-7) | A (A = >90%) | A (A = >90%) | A (A = >90%) | A (A = >90%) | FND | FND | FND | 0.2 nM
